ChEMBL document CHEMBL1201862, “PubChem BioAssay data set” (2004)
Activity calls are given as the source filed them.

Experiments:
[1] = molecular target: Mitogen-activated protein kinase 13 (Homo sapiens, UniProt O15264); assay type: functional
[2] = Vero cell cytotoxicity, dose response, cytotoxicity control for M. tuberculosis growth inhibitor project, Vero cells, purified and synthesized compounds, set 5 (AID 504909); assay type: functional; details: Mycobacterium tuberculosis
[3] = THP-1 cell cytotoxicity, cytotoxicity control, set 4 (AID 504911); assay type: functional; details: Mycobacterium tuberculosis
[4] = THP-1 cell cytotoxicity, dose response, cytotoxicity control, set 3 (AID 504852); assay type: functional; details: Mycobacterium tuberculosis
[5] = Vero cell cytotoxicity, dose response, cytotoxicity control for M. tuberculosis growth inhibitor project, Vero cells, purified and synthesized compounds, set 4 (AID 504854); assay type: functional; details: Mycobacterium tuberculosis
[6] = Vero cell cytotoxicity, cytotoxicity control for M. tuberculosis inhibitor project, purified and synthesized samples, set 3 (AID 504684); assay type: functional
Activin receptor type-1 = molecular target: T1, Activin receptor type-1 (Homo sapiens, UniProt Q04771); assay: Navigating the Kinome. Panel member name: ACVR1; assay type: functional
T1 sequence (Q04771 whole entry): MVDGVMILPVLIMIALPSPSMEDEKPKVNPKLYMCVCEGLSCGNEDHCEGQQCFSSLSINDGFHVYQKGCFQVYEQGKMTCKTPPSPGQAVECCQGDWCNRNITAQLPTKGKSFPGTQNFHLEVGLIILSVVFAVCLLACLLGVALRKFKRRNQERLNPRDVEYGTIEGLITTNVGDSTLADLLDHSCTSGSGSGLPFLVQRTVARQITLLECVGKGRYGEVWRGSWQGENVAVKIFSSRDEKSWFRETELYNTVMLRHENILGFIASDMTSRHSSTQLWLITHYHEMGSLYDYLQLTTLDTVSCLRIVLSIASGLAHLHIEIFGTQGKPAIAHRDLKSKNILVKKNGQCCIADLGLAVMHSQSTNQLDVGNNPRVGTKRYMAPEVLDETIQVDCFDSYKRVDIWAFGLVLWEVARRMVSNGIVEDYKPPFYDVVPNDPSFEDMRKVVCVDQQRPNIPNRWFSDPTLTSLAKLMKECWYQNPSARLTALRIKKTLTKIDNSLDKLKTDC

[7] = molecular target: Dual specificity protein kinase CLK4 (Homo sapiens, UniProt Q9HAZ1); assay type: functional
[8] = molecular target: Platelet-derived growth factor receptor alpha (Homo sapiens, UniProt P16234); assay: Navigating the Kinome. Panel member name: PDGFRA; assay type: functional
[9] = molecular target: Vascular endothelial growth factor receptor 2 (Homo sapiens, UniProt P35968); assay type: functional
Chain of Vascular endothelial growth factor receptor 2 (P35968 whole entry): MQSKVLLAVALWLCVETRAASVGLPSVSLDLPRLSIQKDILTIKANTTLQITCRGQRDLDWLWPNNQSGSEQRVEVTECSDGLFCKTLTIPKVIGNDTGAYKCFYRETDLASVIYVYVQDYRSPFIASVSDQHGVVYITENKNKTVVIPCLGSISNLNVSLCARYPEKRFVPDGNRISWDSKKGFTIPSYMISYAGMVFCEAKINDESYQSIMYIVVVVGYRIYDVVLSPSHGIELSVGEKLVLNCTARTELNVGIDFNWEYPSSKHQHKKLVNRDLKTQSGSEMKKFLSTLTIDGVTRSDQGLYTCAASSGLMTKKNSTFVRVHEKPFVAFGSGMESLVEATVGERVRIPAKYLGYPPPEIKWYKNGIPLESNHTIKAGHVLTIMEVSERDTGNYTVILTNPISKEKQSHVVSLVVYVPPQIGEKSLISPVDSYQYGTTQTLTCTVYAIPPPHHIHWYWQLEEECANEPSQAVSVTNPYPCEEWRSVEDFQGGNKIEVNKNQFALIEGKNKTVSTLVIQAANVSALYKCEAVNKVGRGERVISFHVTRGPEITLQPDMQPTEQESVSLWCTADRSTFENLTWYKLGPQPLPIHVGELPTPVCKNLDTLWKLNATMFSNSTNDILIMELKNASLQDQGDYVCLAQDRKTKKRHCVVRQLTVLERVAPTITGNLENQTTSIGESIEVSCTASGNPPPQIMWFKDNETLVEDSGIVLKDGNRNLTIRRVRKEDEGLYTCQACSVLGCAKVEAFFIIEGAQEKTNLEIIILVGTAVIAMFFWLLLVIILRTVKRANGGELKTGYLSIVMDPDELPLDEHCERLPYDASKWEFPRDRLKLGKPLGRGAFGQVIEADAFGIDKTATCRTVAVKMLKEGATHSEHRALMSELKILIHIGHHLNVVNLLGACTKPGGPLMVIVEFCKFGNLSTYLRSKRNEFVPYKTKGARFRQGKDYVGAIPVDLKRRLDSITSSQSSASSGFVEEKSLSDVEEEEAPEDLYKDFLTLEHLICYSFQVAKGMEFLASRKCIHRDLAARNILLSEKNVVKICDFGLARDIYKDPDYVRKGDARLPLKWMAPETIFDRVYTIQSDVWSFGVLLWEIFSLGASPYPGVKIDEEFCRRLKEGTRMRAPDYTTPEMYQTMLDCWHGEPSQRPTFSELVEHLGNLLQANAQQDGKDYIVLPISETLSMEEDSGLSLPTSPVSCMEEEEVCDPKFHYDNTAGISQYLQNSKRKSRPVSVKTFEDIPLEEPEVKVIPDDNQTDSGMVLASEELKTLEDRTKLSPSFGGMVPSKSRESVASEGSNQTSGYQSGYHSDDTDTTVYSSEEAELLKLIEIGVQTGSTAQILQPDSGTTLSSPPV

[10] = molecular target: Fibroblast growth factor receptor 1 (Homo sapiens, UniProt P11362); assay type: functional
[11] = molecular target: Macrophage colony-stimulating factor 1 receptor (Homo sapiens, UniProt P07333); assay type: functional;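 also: value comes from the Navigating the Kinome screening panel, CSF1R member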
Chain of Macrophage colony-stimulating factor 1 receptor (P07333 whole entry): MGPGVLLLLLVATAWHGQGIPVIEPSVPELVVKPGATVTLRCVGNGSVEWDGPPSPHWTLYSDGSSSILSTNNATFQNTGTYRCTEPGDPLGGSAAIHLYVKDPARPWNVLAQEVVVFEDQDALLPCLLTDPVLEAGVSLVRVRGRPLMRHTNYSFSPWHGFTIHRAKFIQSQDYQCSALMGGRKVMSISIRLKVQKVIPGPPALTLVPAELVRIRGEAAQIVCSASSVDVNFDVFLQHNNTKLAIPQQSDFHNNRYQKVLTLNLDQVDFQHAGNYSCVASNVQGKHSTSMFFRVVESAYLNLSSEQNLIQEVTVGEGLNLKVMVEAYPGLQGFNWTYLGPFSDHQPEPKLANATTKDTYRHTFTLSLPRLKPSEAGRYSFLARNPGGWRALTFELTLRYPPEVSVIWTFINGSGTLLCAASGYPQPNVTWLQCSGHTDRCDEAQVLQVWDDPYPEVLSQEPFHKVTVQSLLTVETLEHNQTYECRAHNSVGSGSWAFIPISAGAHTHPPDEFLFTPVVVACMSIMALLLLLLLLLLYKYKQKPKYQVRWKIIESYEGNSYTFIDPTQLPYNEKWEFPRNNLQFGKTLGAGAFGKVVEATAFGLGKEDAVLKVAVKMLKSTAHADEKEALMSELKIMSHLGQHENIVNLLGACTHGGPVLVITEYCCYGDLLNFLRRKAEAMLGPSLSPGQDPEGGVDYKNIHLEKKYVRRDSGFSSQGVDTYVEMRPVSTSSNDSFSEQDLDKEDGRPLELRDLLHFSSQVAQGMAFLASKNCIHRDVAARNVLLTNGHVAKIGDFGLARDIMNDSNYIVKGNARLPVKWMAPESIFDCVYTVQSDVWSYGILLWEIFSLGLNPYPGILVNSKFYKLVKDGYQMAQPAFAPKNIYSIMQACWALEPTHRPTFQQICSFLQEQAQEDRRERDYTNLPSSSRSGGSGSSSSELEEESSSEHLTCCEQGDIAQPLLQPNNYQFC

[12] = molecular target: Mitogen-activated protein kinase 8 (Homo sapiens, UniProt P45983); assay type: functional;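 also: value comes from one member of a kinome-wide kinase profiling panel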
Activated CDC42 kinase 1 = Activated CDC42 kinase 1 (Homo sapiens, UniProt Q07912); assay: Navigating the Kinome. Panel member name: ACK1; assay type: functional
Chain of Activated CDC42 kinase 1 (Q07912 whole entry, the tested form may be a part): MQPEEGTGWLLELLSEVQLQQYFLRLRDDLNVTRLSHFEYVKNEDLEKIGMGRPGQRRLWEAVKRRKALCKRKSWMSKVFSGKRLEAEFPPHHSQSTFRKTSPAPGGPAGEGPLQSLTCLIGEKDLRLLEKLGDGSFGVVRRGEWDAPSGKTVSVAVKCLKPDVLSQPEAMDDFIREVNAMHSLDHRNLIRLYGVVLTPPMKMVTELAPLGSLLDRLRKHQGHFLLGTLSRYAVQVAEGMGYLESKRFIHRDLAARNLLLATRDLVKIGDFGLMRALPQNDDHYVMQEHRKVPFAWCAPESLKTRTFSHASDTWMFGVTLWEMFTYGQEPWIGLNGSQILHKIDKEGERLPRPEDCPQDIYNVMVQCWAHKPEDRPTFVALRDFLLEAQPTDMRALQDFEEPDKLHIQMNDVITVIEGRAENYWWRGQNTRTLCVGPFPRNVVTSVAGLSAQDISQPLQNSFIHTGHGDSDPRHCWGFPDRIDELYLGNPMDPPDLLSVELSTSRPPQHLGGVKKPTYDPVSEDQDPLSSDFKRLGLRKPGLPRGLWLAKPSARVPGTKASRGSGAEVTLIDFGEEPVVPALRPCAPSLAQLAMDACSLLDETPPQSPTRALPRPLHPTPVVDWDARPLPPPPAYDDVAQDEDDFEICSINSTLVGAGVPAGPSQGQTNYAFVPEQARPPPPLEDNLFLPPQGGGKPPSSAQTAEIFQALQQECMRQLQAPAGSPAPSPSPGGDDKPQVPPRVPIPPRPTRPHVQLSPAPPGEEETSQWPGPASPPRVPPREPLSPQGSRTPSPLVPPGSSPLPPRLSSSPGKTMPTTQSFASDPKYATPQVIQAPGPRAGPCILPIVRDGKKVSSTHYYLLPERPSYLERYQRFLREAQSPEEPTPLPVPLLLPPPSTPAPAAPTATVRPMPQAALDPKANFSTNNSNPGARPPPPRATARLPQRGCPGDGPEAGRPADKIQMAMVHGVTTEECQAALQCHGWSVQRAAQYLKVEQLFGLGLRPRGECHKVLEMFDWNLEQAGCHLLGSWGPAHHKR

LIM domain kinase 1 = LIM domain kinase 1 (Homo sapiens, UniProt P53667); assay: Navigating the Kinome. Panel member name: LIMK1; assay type: functional
Chain of LIM domain kinase 1 (P53667 whole entry, the tested form may be a part): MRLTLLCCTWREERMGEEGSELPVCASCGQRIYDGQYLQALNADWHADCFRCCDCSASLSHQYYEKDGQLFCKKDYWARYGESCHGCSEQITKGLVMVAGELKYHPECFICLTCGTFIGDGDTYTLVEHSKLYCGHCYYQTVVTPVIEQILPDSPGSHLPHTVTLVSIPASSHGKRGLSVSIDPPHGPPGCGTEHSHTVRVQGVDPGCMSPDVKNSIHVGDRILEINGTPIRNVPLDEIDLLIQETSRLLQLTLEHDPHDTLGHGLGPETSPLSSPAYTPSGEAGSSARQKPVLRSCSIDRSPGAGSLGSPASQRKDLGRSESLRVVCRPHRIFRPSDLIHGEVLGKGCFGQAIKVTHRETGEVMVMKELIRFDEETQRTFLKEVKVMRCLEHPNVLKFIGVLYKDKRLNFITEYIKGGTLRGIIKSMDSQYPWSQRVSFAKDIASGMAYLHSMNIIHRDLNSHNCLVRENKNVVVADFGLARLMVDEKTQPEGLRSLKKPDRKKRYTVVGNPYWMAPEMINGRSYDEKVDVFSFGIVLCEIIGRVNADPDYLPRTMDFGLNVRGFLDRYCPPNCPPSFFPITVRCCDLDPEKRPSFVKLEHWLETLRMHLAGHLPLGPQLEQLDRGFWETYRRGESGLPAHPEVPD

Aurora kinase B = Aurora kinase B (Homo sapiens, UniProt Q96GD4); assay type: functional
Chain of Aurora kinase B (Q96GD4 whole entry): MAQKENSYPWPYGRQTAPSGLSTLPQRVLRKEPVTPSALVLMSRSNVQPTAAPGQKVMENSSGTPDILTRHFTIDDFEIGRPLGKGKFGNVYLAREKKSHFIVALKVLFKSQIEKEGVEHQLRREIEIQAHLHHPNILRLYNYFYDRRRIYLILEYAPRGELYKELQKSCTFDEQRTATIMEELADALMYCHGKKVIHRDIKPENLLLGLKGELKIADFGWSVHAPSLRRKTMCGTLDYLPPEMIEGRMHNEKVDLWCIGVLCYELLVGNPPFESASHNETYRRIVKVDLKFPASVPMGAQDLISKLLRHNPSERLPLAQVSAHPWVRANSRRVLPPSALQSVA

[13] = molecular target: Mitogen-activated protein kinase kinase kinase kinase 4 (Homo sapiens, UniProt O95819); assay type: functional
[14] = molecular target: Dual specificity tyrosine-phosphorylation-regulated kinase 1B (Homo sapiens, UniProt Q9Y463); assay: Navigating the Kinome. Panel member name: DYRK1B; assay type: functional
Chain of Dual specificity tyrosine-phosphorylation-regulated kinase 1B (Q9Y463 whole entry): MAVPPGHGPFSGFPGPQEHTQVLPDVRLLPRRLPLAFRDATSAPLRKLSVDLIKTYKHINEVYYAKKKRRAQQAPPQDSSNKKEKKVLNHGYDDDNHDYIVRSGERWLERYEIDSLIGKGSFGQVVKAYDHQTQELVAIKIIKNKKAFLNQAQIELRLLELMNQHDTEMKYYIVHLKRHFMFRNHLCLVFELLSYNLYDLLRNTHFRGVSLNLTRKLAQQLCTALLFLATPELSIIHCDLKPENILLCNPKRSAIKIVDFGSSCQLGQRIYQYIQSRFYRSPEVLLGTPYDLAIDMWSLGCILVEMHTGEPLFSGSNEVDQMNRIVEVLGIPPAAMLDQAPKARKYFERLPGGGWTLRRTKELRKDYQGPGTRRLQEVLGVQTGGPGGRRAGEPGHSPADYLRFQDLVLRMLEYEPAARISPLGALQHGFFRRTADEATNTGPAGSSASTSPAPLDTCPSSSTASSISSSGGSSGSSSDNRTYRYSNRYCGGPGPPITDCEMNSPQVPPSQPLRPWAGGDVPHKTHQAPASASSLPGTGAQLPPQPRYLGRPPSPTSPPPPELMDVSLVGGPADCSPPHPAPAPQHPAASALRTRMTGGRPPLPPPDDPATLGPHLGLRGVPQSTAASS

[15] = molecular target: Cyclin-dependent kinase 5 (Homo sapiens, UniProt Q00535); assay type: functional;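 also: CDK5 measured as one member of a kinase profiling panel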
[16] = molecular target: Leukocyte tyrosine kinase receptor (Homo sapiens, UniProt P29376); assay: Navigating the Kinome. Panel member name: LTK; assay type: functional
[17] = molecular target: Casein kinase I isoform alpha (Homo sapiens, UniProt P48729); assay type: functional
Melanocortin receptor 4 = Melanocortin receptor 4 (Homo sapiens, UniProt P32245); assay: MC4R antagonist potency on cAMP, dose response, cell-based, TR-FRET, biased antagonists (AID 602298); assay type: functional;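 also: antagonist potency against agonist-stimulated cAMP production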
[18] = molecular target: T2, Histone-lysine N-methyltransferase NSD2 (Homo sapiens, UniProt O96028); assay type: biochemical
T2 sequence (O96028 whole entry): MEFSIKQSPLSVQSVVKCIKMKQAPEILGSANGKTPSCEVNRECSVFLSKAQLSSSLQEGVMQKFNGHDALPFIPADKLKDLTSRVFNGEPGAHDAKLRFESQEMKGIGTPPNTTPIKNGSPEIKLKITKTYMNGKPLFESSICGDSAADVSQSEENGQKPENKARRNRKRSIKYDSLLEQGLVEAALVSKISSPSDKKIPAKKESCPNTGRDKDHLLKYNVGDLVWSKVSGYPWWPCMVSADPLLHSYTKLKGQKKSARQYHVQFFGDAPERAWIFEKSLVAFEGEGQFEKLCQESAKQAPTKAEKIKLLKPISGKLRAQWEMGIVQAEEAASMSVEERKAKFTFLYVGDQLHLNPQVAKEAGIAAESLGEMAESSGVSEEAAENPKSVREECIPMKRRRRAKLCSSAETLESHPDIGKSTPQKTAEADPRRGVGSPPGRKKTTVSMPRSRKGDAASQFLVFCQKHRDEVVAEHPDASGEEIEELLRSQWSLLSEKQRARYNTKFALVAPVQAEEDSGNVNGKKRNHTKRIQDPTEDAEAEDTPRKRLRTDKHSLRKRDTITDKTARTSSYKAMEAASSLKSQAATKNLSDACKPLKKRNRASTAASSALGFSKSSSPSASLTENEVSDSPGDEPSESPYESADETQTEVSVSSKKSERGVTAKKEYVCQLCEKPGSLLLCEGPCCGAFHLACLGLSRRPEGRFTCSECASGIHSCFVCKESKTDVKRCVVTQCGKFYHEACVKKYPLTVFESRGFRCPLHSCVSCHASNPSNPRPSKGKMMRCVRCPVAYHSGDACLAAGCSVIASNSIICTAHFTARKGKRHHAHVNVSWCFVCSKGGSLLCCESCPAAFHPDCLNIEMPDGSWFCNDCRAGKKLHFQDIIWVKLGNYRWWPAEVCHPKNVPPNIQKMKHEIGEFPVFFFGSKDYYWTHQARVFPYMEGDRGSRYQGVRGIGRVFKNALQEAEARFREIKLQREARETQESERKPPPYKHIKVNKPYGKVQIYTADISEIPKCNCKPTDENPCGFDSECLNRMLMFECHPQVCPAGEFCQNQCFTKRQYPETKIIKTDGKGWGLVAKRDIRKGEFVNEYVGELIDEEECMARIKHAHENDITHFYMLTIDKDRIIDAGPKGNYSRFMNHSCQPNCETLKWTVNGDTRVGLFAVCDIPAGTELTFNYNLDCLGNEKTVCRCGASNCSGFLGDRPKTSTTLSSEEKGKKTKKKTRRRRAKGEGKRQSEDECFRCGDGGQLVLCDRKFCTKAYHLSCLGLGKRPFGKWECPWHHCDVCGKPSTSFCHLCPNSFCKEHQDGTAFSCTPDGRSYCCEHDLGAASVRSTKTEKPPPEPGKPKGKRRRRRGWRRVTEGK

[19] = nonselective inhibitors of cellular cAMP signaling, dose response, counter-screen for MC4R biased antagonist project, cell-based, TR-FRET cAMP detection (AID 602305); assay type: functional;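 also: U2OS cells stimulated with forskolin near its EC80 as the cAMP inducer; potency is for inhibition of forskolin-stimulated cAMP signaling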
cells = assay type: functional
[20] = molecular target: T3, Heat shock factor protein 1 (Mus musculus, UniProt P38532); assay: HSF1 potentiators in luciferase reporter cells, confirmation, cell-based, NIH3T3, luminescence, dose retest (AID 435004); assay type: functional;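 also: stress induced by proteasome inhibitor MG132 added 30 min after compound; luciferase reporter driven by HSF1 response element in NIH3T3 cells; actives raise luminescence as potentiators of the MG132 stress response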
T3 sequence (P38532 whole entry): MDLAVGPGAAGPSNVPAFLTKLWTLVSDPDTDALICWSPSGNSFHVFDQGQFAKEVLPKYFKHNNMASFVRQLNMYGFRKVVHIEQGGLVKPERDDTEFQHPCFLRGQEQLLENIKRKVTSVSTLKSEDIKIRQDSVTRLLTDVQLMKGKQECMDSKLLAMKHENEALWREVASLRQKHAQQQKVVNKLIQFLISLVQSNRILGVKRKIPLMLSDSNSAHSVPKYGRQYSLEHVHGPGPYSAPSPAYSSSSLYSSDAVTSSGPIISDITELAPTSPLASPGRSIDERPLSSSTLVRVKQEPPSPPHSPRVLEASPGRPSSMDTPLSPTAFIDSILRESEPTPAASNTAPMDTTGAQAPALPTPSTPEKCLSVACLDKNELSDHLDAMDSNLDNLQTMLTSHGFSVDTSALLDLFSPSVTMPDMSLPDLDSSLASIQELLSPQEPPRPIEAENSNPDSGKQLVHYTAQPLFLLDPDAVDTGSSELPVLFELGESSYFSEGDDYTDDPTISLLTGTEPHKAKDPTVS

**Q.** With `O=S(=O)(NCCNCC=Cc1ccc(Br)cc1)c1cccc2cnccc12` as the compound, how does the Ki [1] read?
**A.** > 7.94 µM (inactive)

**Q.** Which CC50 [2] does the source give for `CCSc1nc(=O)c2ccccc2[nH]1` here?
**A.** > 100 µM (active)

**Q.** And the CC50 [3]?
**A.** > 100 µM (active)

**Q.** And the CC50 [4]?
**A.** > 100 µM (active)

**Q.** What about the CC50 [5] of the same compound?
**A.** > 100 µM (active)

**Q.** What about the CC50 [6] of the same compound?
**A.** > 100 µM (active)

**Q.** Which results are given for `Nc1n[nH]c2c(-c3ccccc3)cccc12`?
**A.** Ki (Activin receptor type-1): 79.4 µM (active); Ki [7]: 79.4 µM (active); Ki [8]: 50.1 µM (active); Ki [9]: 50.1 µM (active); Ki [10]: 79.4 µM (active); Ki [11]: 63.1 µM (active); Ki [12]: 15.8 µM (active); Ki (Activated CDC42 kinase 1): 79.4 µM (active); Ki (LIM domain kinase 1): 63.1 µM (active); Ki (Aurora kinase B): 79.4 µM (active); Ki [13]: 25.1 µM (active); Ki [14]: 50.1 µM (active); Ki [15]: 50.1 µM (active); Ki [16]: 50.1 µM (active); Ki [17]: 39.8 µM (active)

**Q.** Which IC50 (Melanocortin receptor 4) does the source give for `CC(C)Cn1c(N)c(C(=O)COC(=O)c2ccc([N+](=O)[O-])o2)c(=O)n(C)c1=O` here?
**A.** > 64.6 µM (inactive)

**Q.** What about the AC50 [18] of the same compound?
**A.** > 20 µM (inactive)

**Q.** And the IC50 [19]?
**A.** > 64.6 µM (inactive)

**Q.** And the IC50 (cells)?
**A.** 1.57 µM (active)

**Q.** And the EC50 [20]?
**A.** 18.5 µM (active)
